Measured values from the NIST ThermoML archive (doi:10.1016/j.fluid.2011.06.011).

Test: xn = mol fraction of the nth substance listed
Details: Liquid; for speed of sound: Sing-around technique in a fixed-path interferometer; for mass density: Vibrating tube method

C=CC(C)(O)CCC=C(C)C (stereo not drawn) [3,7-dimethyl-1,6-octadien-3-ol] + CCO
Details | mass density, 283.15 K [kg/m3] | mass density, 298.15 K [kg/m3] | speed of sound, 283.15 K [m/s] | speed of sound, 298.15 K [m/s]
101 kPa, x1 = 0.0506 | 809.66 | 797.07 | 1222 | –
101 kPa, x1 = 0.0507 | – | – | – | 1171.7
101 kPa, x1 = 0.1008 | 819.09 | 806.76 | 1245 | 1196.3
101 kPa, x1 = 0.1969 | 833.37 | 821.08 | 1281 | 1229.2
101 kPa, x1 = 0.2895 | 843.35 | 831.1 | – | 1253.6
101 kPa, x1 = 0.2959 | – | – | 1307.6 | –
101 kPa, x1 = 0.3862 | – | 838.62 | 1325.8 | 1271.2
101 kPa, x1 = 0.3957 | 851.69 | – | – | –
101 kPa, x1 = 0.4803 | 856.48 | 844.09 | 1339 | –
101 kPa, x1 = 0.4834 | – | – | – | 1285
101 kPa, x1 = 0.593 | 861.02 | 848.66 | 1350.3 | 1294.7
101 kPa, x1 = 0.6838 | 863.65 | 851.31 | 1355.4 | 1300.7
101 kPa, x1 = 0.7832 | – | – | 1361 | 1306.5
101 kPa, x1 = 0.8438 | 866.82 | 854.5 | – | –
101 kPa, x1 = 0.8941 | 867.74 | 855.41 | 1365.1 | 1310.7
101 kPa, x1 = 0.9286 | 868.3 | 855.96 | 1366.7 | 1312.2
101 kPa, x1 = 1 | 869.39 | 857 | 1370.6 | 1315.1
20000 kPa, x1 = 0.0511 | 824.1 | 812.6 | – | –
20000 kPa, x1 = 0.1003 | 832.7 | 821.5 | – | –
20000 kPa, x1 = 0.1962 | 845.8 | 834.6 | – | –
20000 kPa, x1 = 0.2989 | 856 | 844.8 | – | –
20000 kPa, x1 = 0.3996 | 863 | 851.7 | – | –
20000 kPa, x1 = 0.5015 | 868.2 | 856.9 | – | –
20000 kPa, x1 = 0.5982 | 871.9 | 860.6 | – | –
20000 kPa, x1 = 0.6898 | 874.7 | 863.4 | – | –
20000 kPa, x1 = 0.7929 | 877.2 | 865.8 | – | –
20000 kPa, x1 = 0.8885 | 879.1 | 867.7 | – | –
20000 kPa, x1 = 0.9435 | 880 | 868.6 | – | –
20000 kPa, x1 = 1 | 880.8 | 869.4 | – | –
25000 kPa, x1 = 0.0511 | 827.5 | 816.1 | – | –
25000 kPa, x1 = 0.1003 | 836.1 | 824.9 | – | –
25000 kPa, x1 = 0.1962 | 849 | 837.9 | – | –
25000 kPa, x1 = 0.2989 | 859.1 | 848 | – | –
25000 kPa, x1 = 0.3996 | 866 | 854.8 | – | –
25000 kPa, x1 = 0.5015 | 871.2 | 860 | – | –
25000 kPa, x1 = 0.5982 | 874.9 | 863.6 | – | –
25000 kPa, x1 = 0.6898 | 877.6 | 866.3 | – | –
25000 kPa, x1 = 0.7929 | 880.1 | 868.7 | – | –
25000 kPa, x1 = 0.8885 | 882 | 870.7 | – | –
25000 kPa, x1 = 0.9435 | 882.9 | 871.5 | – | –
25000 kPa, x1 = 1 | 883.7 | 872.3 | – | –
30000 kPa, x1 = 0.0511 | 830.7 | 819.6 | – | –
30000 kPa, x1 = 0.1003 | 839 | 828.2 | – | –
30000 kPa, x1 = 0.1962 | 851.9 | 841.1 | – | –
30000 kPa, x1 = 0.2989 | 861.9 | 851 | – | –
30000 kPa, x1 = 0.3996 | 868.8 | 857.8 | – | –
30000 kPa, x1 = 0.5015 | 873.9 | 863 | – | –
30000 kPa, x1 = 0.5982 | 877.5 | 866.5 | – | –
30000 kPa, x1 = 0.6898 | 880.2 | 869.2 | – | –
30000 kPa, x1 = 0.7929 | 882.7 | 871.6 | – | –
30000 kPa, x1 = 0.8885 | 884.6 | 873.5 | – | –
30000 kPa, x1 = 0.9435 | 885.4 | 874.4 | – | –
30000 kPa, x1 = 1 | 886.1 | 875.2 | – | –
35000 kPa, x1 = 0.0511 | 833.8 | 822.8 | – | –
35000 kPa, x1 = 0.1003 | 842.2 | 831.4 | – | –
35000 kPa, x1 = 0.1962 | 854.9 | 844.1 | – | –
35000 kPa, x1 = 0.2989 | 864.7 | 854 | – | –
35000 kPa, x1 = 0.3996 | 871.5 | 860.7 | – | –
35000 kPa, x1 = 0.5015 | 876.7 | 865.8 | – | –
35000 kPa, x1 = 0.5982 | 880.3 | 869.3 | – | –
35000 kPa, x1 = 0.6898 | 882.9 | 872 | – | –
35000 kPa, x1 = 0.7929 | 885.3 | 874.4 | – | –
35000 kPa, x1 = 0.8885 | 887.2 | 876.3 | – | –
35000 kPa, x1 = 0.9435 | 888.1 | 877.1 | – | –
35000 kPa, x1 = 1 | 888.9 | 877.9 | – | –
40000 kPa, x1 = 0.0511 | 836.8 | 826 | – | –
40000 kPa, x1 = 0.1003 | 845.1 | 834.5 | – | –
40000 kPa, x1 = 0.1962 | 857.6 | 847.1 | – | –
40000 kPa, x1 = 0.2989 | 867.4 | 856.9 | – | –
40000 kPa, x1 = 0.3996 | 874.1 | 863.5 | – | –
40000 kPa, x1 = 0.5015 | 879.3 | 868.6 | – | –
40000 kPa, x1 = 0.5982 | 882.8 | 872.1 | – | –
40000 kPa, x1 = 0.6898 | 885.5 | 874.8 | – | –
40000 kPa, x1 = 0.7929 | 887.9 | 877.1 | – | –
40000 kPa, x1 = 0.8885 | 889.7 | 878.9 | – | –
40000 kPa, x1 = 0.9435 | 890.6 | 879.7 | – | –
40000 kPa, x1 = 1 | 891.4 | 880.6 | – | –
